In brackets after ≈: the same amount, converted by molar mass. Where two headings read alike, the source gives them in different places.
Key:
[1] = tested on: Trypanosoma cruzi amastigotes (Tulahuen C2C4 strain); test: Trypanosoma cruzi assay in infected L-6 cells; assay type: cell-based; details: L6, 96 h incubation, read-out: IC50 T. cruzi
Experimental: (§1) (c) Antiprotozoal screening. Compounds were evaluated for their activities against both Trypanosoma cruzi amastigotes and Leishmania donovani amastigotes (free or encapsulated in macrophages), according to the following protocols:
(i) Trypanosoma cruzi assay. L-6 cells (2×10^3) in medium (100 μL of RPMI 1640 supplemented with 2 mM L-glutamine plus 10% heat inactivated fetal calf serum) were seeded in 96-well microtitre plates (Costar™) and incubated at 37° C. (5% CO2) for 1d. A suspension (50 μL) of Trypanosoma cruzi trypomastigotes (5×10^3 of Tulahuen C2C4 strain, containing the β-galactosidase gene) was added, and the cells were incubated at 37° C. (5% CO2) for a further 48 h to establish the infection. The medium was removed and replaced by fresh medium and the infected cells were then incubated at 37° C. (5% CO2) for 96 h in either medium alone or in the presence of serial (3-fold) dilutions of test compounds (initially prepared as 10 mg/mL stock solutions in DMSO and diluted into medium). Benznidazole was employed as a standard in each assay. Following incubation, chlorophenol red glycoside (100 mM) in 0.1% Nonidet P40/PBS (50 μL) was added, and (after 6 h) the absorbance at 540 nm was measured and used to calculate the IC50 values.

[2] = tested on: Axenically grown L. donovani amastigotes (MHOM-ET-67/L82); test: Axenic Leishmania donovani assay; assay type: cell-based; details: 70 h incubation, read-out: IC50 L. donovani axen
Experimental: as §1
(ii) Axenic Leishmania donovani assay. Axenically grown L. donovani amastigotes (MHOM-ET-67/L82) from a healthy culture in log phase were seeded at a density of 1×10^6/mL medium (SM, pH 5.4 plus 10% heat inactivated fetal calf serum) in 96-well microtitre plates (Costar™) and incubated at 37° C. (5% CO2) for 70 h in either medium alone or in the presence of serial (3-fold) dilutions of test compounds (initially prepared as 10 mg/mL stock solutions in DMSO and diluted into medium). Miltefosin was employed as a standard in each assay. After incubation, Resazurin fluorescent dye was added to each well, and incubation was continued for an additional 2 h. The IC50 values were determined from measurements of the fluorescence data.

[3] = tested on: VERO cells (CCL-81); test: Mammalian cell cytotoxicity assay (tetrazolium dye); assay type: cell-based; details: Chlorocebus sabaeus, read-out: IC50 VERO
Experimental: (b) Mammalian cell cytotoxicity assay. This was assessed against VERO cells (CCL-81, American Type Culture Collection) in a 72 h exposure, using a tetrazolium dye assay (Falzari et al., 2005).

[4] = tested on: L. donovani amastigotes (MHOM-ET-67/L82) in mouse macrophages; test: Leishmania donovani infected macrophage assay; assay type: cell-based; details: 96 h incubation, read-out: IC50 L. donovani macro
Experimental: as §1
(iii) Leishmania donovani infected macrophage assay. Freshly harvested mouse macrophages in medium (RPMI 1640 plus 10% heat inactivated fetal calf serum) were incubated at 37° C. (5% CO2) for 24 h and then infected (1:3 macrophages to amastigotes) with an axenic L. donovani amastigote culture (MHOM-ET-67/L82) in medium (SM, pH 5.4 plus 10% heat inactivated fetal calf serum). The infected macrophages were seeded at a density of 1.2×10^6/mL (by diluting in RPMI+10% FCS) in 16-well slides (Lab-tek™) and incubated at 37° C. (5% CO2) for 24 h. The medium was removed and replaced by fresh medium (RPMI 1640+10% FCS), and this was repeated following mixing. The infected macrophages were then incubated at 37° C. (5% CO2) for 96 h in either medium alone or in the presence of serial (3-fold) dilutions of test compounds (initially prepared as 10 mg/mL stock solutions in DMSO and diluted into medium). Miltefosin was employed as a standard in each assay. […], the slides were fixed (5 min in 100% MeOH) and stained (10% Giemsa, 10 min). The ratio of infected to uninfected macrophages was determined by microscopic examination, and the IC50 values were then calculated by linear regression analysis.

[5] = tested on: replicating Mycobacterium tuberculosis; test: MABA microplate Alamar blue assay, MIC (aerobic); assay type: cell-based; details: 192 h

Compound | melting point | also measured
CC1(COc2ccc(-c3ccc(OC(F)(F)F)cc3)nc2)CCn2cc([N+](=O)[O-])nc2O1 (centres unmarked) | 202 to 203 °C | 
CC1(COc2ccc(-c3ccc(C(F)(F)F)cc3)nc2)CCn2cc([N+](=O)[O-])nc2O1 (centres unmarked) | 215 to 217 °C | 
O=[N+]([O-])c1cn2c(n1)OC(COCc1ccc(OC(F)(F)F)cc1)C2 (centres unmarked) | 134 to 135 °C | 
O=[N+]([O-])c1cn2c(n1)OCC(COc1ccc(-c3ccc(F)cc3)nc1)C2 (centres unmarked) | 214 to 216 °C | 
O=[N+]([O-])c1cn2c(n1)OCC(COc1ccc(-c3ccc(OC(F)(F)F)cc3)cc1)C2 (centres unmarked) | 192 to 194 °C | 
CC1(COc2ccc(-c3ccc(OC(F)(F)F)cc3)nc2)Cn2cc([N+](=O)[O-])nc2O1 (centres unmarked) | 209 to 211 °C | 
CC1(COc2ccc(-c3ccc(C(F)(F)F)cc3)cc2)CCn2cc([N+](=O)[O-])nc2O1 (centres unmarked) | 196 to 198 °C | 
O=[N+]([O-])c1cn2c(n1)OC[C@H](COc1ccc(OC(F)(F)F)cc1)C2 | 139 to 140 °C | 
O=[N+]([O-])c1cn2c(n1)OC(COc1ccc(-c3ccc(OC(F)(F)F)cc3)cn1)C2 (centres unmarked) | 127 to 130 °C | 
CC1(COCc2cccc(OC(F)(F)F)c2)CCn2cc([N+](=O)[O-])nc2O1 (centres unmarked) | 108 to 110 °C | 
CC1(COc2ccc(-c3ccc(OC(F)(F)F)cc3)cn2)CCn2cc([N+](=O)[O-])nc2O1 (centres unmarked) | 195 to 198 °C | 
O=[N+]([O-])c1cn2c(n1)OCC(COc1ccc(-c3ccc(C(F)(F)F)cc3)cc1)C2 (centres unmarked) | 218 to 221 °C | 
O=[N+]([O-])c1cn2c(n1)OC(COc1ccc(-c3ccc(C(F)(F)F)cc3)cc1)C2 (centres unmarked) | 210 to 211 °C | 
O=[N+]([O-])c1cn2c(n1)OC(COCc1ccc(OCc3ccccc3)cc1)C2 (centres unmarked) | 123 to 124 °C | 
CC1(COc2ccc(OCc3ccccc3)cc2)CCn2cc([N+](=O)[O-])nc2O1 (centres unmarked) | 174 to 176 °C | 
O=[N+]([O-])c1cn2c(n1)OCC(COc1ccc(OC(F)(F)F)cc1)C2 (racemic) | 141 to 143 °C | 
O=[N+]([O-])c1cn2c(n1)OCC(COc1ccc(-c3ccc(F)cc3)cc1)C2 (centres unmarked) | 201 to 203 °C | 
O=[N+]([O-])c1cn2c(n1)OCC(COc1ccc(-c3ccc(OC(F)(F)F)cc3)cn1)C2 (centres unmarked) | 182 to 183 °C | 
CC1(COc2cnc(-c3ccc(F)cc3)nc2)Cn2cc([N+](=O)[O-])nc2O1 (centres unmarked) | 201 to 203 °C | 
CC1(COc2ccc(-c3ccc(F)cc3)cn2)Cn2cc([N+](=O)[O-])nc2O1 (centres unmarked) | 162 to 164 °C | 
CC1(COc2ccc(-c3ccc(C(F)(F)F)cc3)cc2)Cn2cc([N+](=O)[O-])nc2O1 (centres unmarked) [Compound 11, 2-methyl-6-nitro-2-({[4′-(trifluoromethyl)[1,1′-biphenyl]-4-yl]oxy}methyl)-2,3-dihydroimidazo[2,1-b][1,3]oxazole] | 219 to 220 °C | IC50 [1]: 18 µg/mL (≈ 42.9 µM); IC50 [2]: 0.028 µg/mL (≈ 0.0668 µM); IC50 ([3]; 72 h): > 128 µM; IC50 [4]: 0.47 µg/mL (≈ 1.12 µM); MIC [5]: 0.08 µM (≈ 0.0335 µg/mL)
O=[N+]([O-])c1cn2c(n1)OCC(COCc1ccc(OCc3ccccc3)cc1)C2 (centres unmarked) [Compound 73, 6-({[4-(benzyloxy)benzyl]oxy}methyl)-2-nitro-6,7-dihydro-5H-imidazo[2,1-b][1,3]oxazine] | 150 to 151 °C | IC50 [1]: 2.8 µg/mL (≈ 7.08 µM); IC50 [2]: 0.16 µg/mL (≈ 0.405 µM); IC50 ([3]; 72 h exposure): 113 µM; IC50 [4]: 0.53 µg/mL (≈ 1.34 µM)
CC1(COc2ccc(-c3ccc(C(F)(F)F)cc3)cn2)CCn2cc([N+](=O)[O-])nc2O1 (centres unmarked) | 212 to 214 °C | 
CC1(COc2ncc(-c3ccc(F)cc3)cn2)Cn2cc([N+](=O)[O-])nc2O1 (centres unmarked) | 196 °C (dec.) | 

Compound | melting point | also measured
CC1(COc2ccc(-c3ccc(F)cc3)cc2)Cn2cc([N+](=O)[O-])nc2O1 (centres unmarked) [Compound 10, 2-{[(4′-fluoro[1,1′-biphenyl]-4-yl)oxy]methyl}-2-methyl-6-nitro-2,3-dihydroimidazo[2,1-b][1,3]oxazole] | 180 to 181 °C | IC50 [1]: 2 µg/mL (≈ 5.41 µM); IC50 [2]: 0.04 µg/mL (≈ 0.108 µM); IC50 ([3]; 72 h exposure): > 128 µM; IC50 [4]: 0.23 µg/mL (≈ 0.623 µM); MIC [5]: 0.045 µM (≈ 0.0166 µg/mL)
O=[N+]([O-])c1cn2c(n1)OC(COc1ccc(OCc3ccccc3)cc1)C2 (centres unmarked) | 208 to 210 °C | 
O=[N+]([O-])c1cn2c(n1)OCC(COc1ccc(-c3ccc(C(F)(F)F)cc3)cn1)C2 (centres unmarked) | 180 to 182 °C | 
CC1(COc2ncc(-c3ccc(OC(F)(F)F)cc3)cn2)Cn2cc([N+](=O)[O-])nc2O1 (centres unmarked) | 227 °C (dec.) | 
O=[N+]([O-])c1cn2c(n1)OC(COc1ccc(OCc3ccccc3)cc1)CC2 (centres unmarked) (hydrate or solvate) | 222 to 224 °C | 
CC1(COCc2ccc(OC(F)(F)F)cc2)CCn2cc([N+](=O)[O-])nc2O1 (centres unmarked) | 100 to 101 °C | 
O=[N+]([O-])c1cn2c(n1)OC(COc1ccc(-c3ccc(OC(F)(F)F)cc3)cc1)C2 (centres unmarked) | 200 to 201 °C | 
O=[N+]([O-])c1cn2c(n1)OCC(COc1ccc(-c3ccc(OC(F)(F)F)cc3)nc1)C2 (centres unmarked) | 180 to 181 °C | 
O=[N+]([O-])c1cn2c(n1)OC[C@@H](COc1ccc(OC(F)(F)F)cc1)C2 | 138 to 139 °C | 
CC1(COc2ccc(-c3ccc(F)cc3)nc2)Cn2cc([N+](=O)[O-])nc2O1 (centres unmarked) | 180 to 181 °C | 
CC1(COc2cnc(-c3ccc(OC(F)(F)F)cc3)cn2)Cn2cc([N+](=O)[O-])nc2O1 (centres unmarked) | 222 to 224 °C | 
CC1(COc2cnc(-c3ccc(F)cc3)cn2)Cn2cc([N+](=O)[O-])nc2O1 (centres unmarked) | 200 to 201 °C | 
CC1(COc2ccc(-c3ccc(OC(F)(F)F)cc3)cn2)Cn2cc([N+](=O)[O-])nc2O1 (centres unmarked) | 172 to 174 °C | 
O=[N+]([O-])c1cn2c(n1)OCC(COc1ccc(-c3ccc(C(F)(F)F)cc3)nc1)C2 (centres unmarked) | 233 to 235 °C | 
O=[N+]([O-])c1cn2c(n1)OC(COc1ccc(-c3ccc(OC(F)(F)F)cc3)cn1)CC2 (centres unmarked) | 161 to 163 °C | 
O=[N+]([O-])c1cn2c(n1)OC(COCc1ccc(OCc3ccccc3)cc1)CC2 (centres unmarked) [Compound 49, 7-({[4-(benzyloxy)benzyl]oxy}methyl)-2-nitro-6,7-dihydro-5H-imidazo[2,1-b][1,3]oxazine] | 151 to 153 °C | IC50 [1]: 0.55 µg/mL (≈ 1.39 µM); IC50 [2]: 0.048 µg/mL (≈ 0.121 µM); IC50 ([3]; 72 h exposure): > 128 µM; IC50 [4]: 0.065 µg/mL (≈ 0.164 µM)
O=[N+]([O-])c1cn2c(n1)OC(COc1ccc(-c3ccc(F)cc3)cc1)C2 (centres unmarked) | 224 to 226 °C | 
O=[N+]([O-])c1cn2c(n1)OC(COc1ccc(OC(F)(F)F)cc1)C2 (centres unmarked) | 170 to 172 °C | 
CC1(COCc2cccc(-c3ccc(OC(F)(F)F)cc3)c2)CCn2cc([N+](=O)[O-])nc2O1 (centres unmarked) | 80 to 82 °C | 
O=[N+]([O-])c1cn2c(n1)OC(COc1ccc(-c3ccc(C(F)(F)F)cc3)cc1)CC2 (centres unmarked) | 242 to 245 °C | 
CC1(COc2ccc(-c3ccc(F)cc3)cc2)CCn2cc([N+](=O)[O-])nc2O1 (centres unmarked) | 160 to 162 °C | 
O=[N+]([O-])c1cn2c(n1)OCC(COc1ccc(-c3ccc(F)cc3)cn1)C2 (centres unmarked) | 160 to 161 °C | 
CC1(COc2cnc(-c3ccc(OC(F)(F)F)cc3)nc2)Cn2cc([N+](=O)[O-])nc2O1 (centres unmarked) | 223 to 225 °C | 
